Test results from ChEMBL document CHEMBL1201862, “PubChem BioAssay data set” (2004).
“And” between values parts separate entries of the source, which are not always exact repeats. Equal entries are not always repeated.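 Values below derive from 48-hour exposures of cells grown in 96-well plates, with endpoints linearly interpolated between the two concentrations bracketing the appropriate inhibition level. GI50: concentration for 50% inhibition of growth.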 The source made the active and inactive calls. No stated cut-off is given here; in the data, active = GI50 up to about 1.1 µM and inactive = higher.

Experiments:
Experiment in all cases: DTP human tumour cell line panel, 48 h
[1] = test system: CAKI-1
[2] = test system: NCI-H460
[3] = test system: EKVX
[4] = test system: HL-60
[5] = test system: NCI-H226
[6] = test system: HT-29
[7] = test system: DMS-114
[8] = test system: OVCAR-4
[9] = test system: XF498
[10] = test system: SW-620
[11] = test system: DMS-273
[12] = test system: SK-MEL-28
[13] = test system: IGROV-1
[14] = test system: M19-MEL
[15] = test system: SK-OV-3
[16] = test system: SNB-78
[17] = test system: A498
[18] = test system: NCI-H522
[19] = test system: SF-295
[20] = test system: ACHN
[21] = test system: HCC 2998
[22] = test system: RPMI-8226
[23] = test system: TK-10
[24] = test system: SK-MEL-2
[25] = test system: LXFL 529
[26] = test system: OVCAR-5
[27] = test system: MOLT-4
[28] = test system: RXF 393
[29] = test system: HCT-116
[30] = test system: UACC-257
[31] = test system: OVCAR-3
[32] = test system: 786-0
[33] = test system: DLD-1
[34] = test system: UO-31
[35] = test system: SN12C
[36] = test system: SNB-75
[37] = test system: HOP-62
[38] = test system: HOP-92
[39] = test system: SF-539
[40] = test system: M14
[41] = test system: CCRF-CEM
[42] = test system: K562
[43] = test system: Malme-3M
[44] = test system: COLO 205
[45] = test system: NCI-H23
[46] = test system: SR
[47] = test system: SF-268
[48] = test system: UACC-62
[49] = test system: OVCAR-8
[50] = test system: KM12
[51] = test system: HCT-15
[52] = test system: SNB-19
[53] = test system: U-251
[54] = test system: SK-MEL-5
[55] = test system: HOP-18
[56] = test system: A549
[57] = test system: KM-20L2
[58] = test system: LOX IMVI

`CC(=O)OCC1OC(n2c(-c3ccccc3)cc(-c3ccco3)c(C#N)c2=O)C(OC(C)=O)C(OC(C)=O)C1OC(C)=O` (configuration not stated) was tested, and the GI50 [1] was 52.5 µM (inactive), the GI50 [2] was 57.4 µM (inactive) and the GI50 [3] was > 100 µM (inactive). For the same compound, the GI50 [4] was 3.84 µM (inactive), the GI50 [5] was > 100 µM (inactive) and the GI50 [6] was > 100 µM (inactive). For the same compound, the GI50 [7] was 28.8 µM (inactive) and 30.5 µM (inactive), the GI50 [8] was > 56.6 µM (inactive) and 74.3 µM (inactive) and the GI50 [9] was 16.2 µM (inactive). The GI50 [10] was > 31.6 µM (inactive) and 49.3 µM (inactive), the GI50 [11] was 25.8 µM (inactive) and 36.3 µM (inactive) and the GI50 [12] was 22.3 µM (inactive) and 39.3 µM (inactive). For the same compound, the GI50 [13] was > 31.6 µM (inactive) and 36.8 µM (inactive), the GI50 [14] was 54.6 µM (inactive) and 30.9 µM (inactive) and the GI50 [15] was > 100 µM (inactive) and 98.6 µM (inactive). The GI50 [16] was 45.7 µM (inactive) and 25.9 µM (inactive), the GI50 [17] was > 100 µM (inactive) and 68.1 µM (inactive) and the GI50 [18] was 29.5 µM (inactive) and 20.7 µM (inactive). For the same compound, the GI50 [19] was 39.9 µM (inactive) and 57.5 µM (inactive), the GI50 [20] was 76.7 µM (inactive) and 49.7 µM (inactive) and the GI50 [21] was > 100 µM (inactive) and 52.4 µM (inactive). For the same compound, the GI50 [22] was 8.38 µM (inactive), the GI50 [23] was > 31.6 µM (inactive) and 27.2 µM (inactive) and the GI50 [24] was 14.6 µM (inactive) and 28.1 µM (inactive). The GI50 [25] was 12.7 µM (inactive) and > 10 µM (inactive), the GI50 [26] was > 100 µM (inactive) and the GI50 [27] was > 22.8 µM (inactive) and 14.8 µM (inactive). For the same compound, the GI50 [28] was > 32.1 µM (inactive) and 19.3 µM (inactive), the GI50 [29] was 7.46 µM (inactive) and 5.86 µM (inactive) and the GI50 [30] was > 89.1 µM (inactive) and 75.7 µM (inactive). For the same compound, the GI50 [31] was 33.3 µM (inactive) and > 31.6 µM (inactive).
With `CCNC1CC(n2cc(C)c(=O)[nH]c2=O)OC1CO` (configuration not stated) the GI50 [1] was > 100 µM (inactive), the GI50 [2] was > 100 µM (inactive) and the GI50 [32] was > 100 µM (inactive). The GI50 [33] was > 100 µM (inactive), the GI50 [4] was > 100 µM (inactive) and the GI50 [5] was > 100 µM (inactive). For the same compound, the GI50 [7] was > 100 µM (inactive), the GI50 [8] was > 100 µM (inactive) and the GI50 [9] was > 100 µM (inactive). The GI50 [34] was > 100 µM (inactive), the GI50 [35] was > 100 µM (inactive) and the GI50 [11] was > 100 µM (inactive). For the same compound, the GI50 [36] was > 100 µM (inactive), the GI50 [12] was > 100 µM (inactive) and the GI50 [37] was > 100 µM (inactive). The GI50 [13] was > 100 µM (inactive), the GI50 [14] was > 100 µM (inactive) and the GI50 [15] was > 100 µM (inactive). For the same compound, the GI50 [16] was > 100 µM (inactive), the GI50 [38] was > 100 µM (inactive) and the GI50 [17] was > 100 µM (inactive). For the same compound, the GI50 [39] was > 100 µM (inactive), the GI50 [40] was > 100 µM (inactive) and the GI50 [41] was > 100 µM (inactive). For the same compound, the GI50 [42] was > 100 µM (inactive), the GI50 [18] was > 100 µM (inactive) and the GI50 [43] was > 100 µM (inactive). The GI50 [21] was > 100 µM (inactive), the GI50 [22] was > 100 µM (inactive) and the GI50 [24] was > 100 µM (inactive). For the same compound, the GI50 [25] was > 100 µM (inactive), the GI50 [44] was > 100 µM (inactive) and the GI50 [45] was > 100 µM (inactive). For the same compound, the GI50 [27] was > 100 µM (inactive), the GI50 [29] was > 100 µM (inactive) and the GI50 [46] was > 100 µM (inactive). For the same compound, the GI50 [47] was > 100 µM (inactive) and the GI50 [48] was > 100 µM (inactive).
`COc1ccc(N2C(=O)c3c(c4[nH]c5ccc(OC)cc5c4c4ccc(C(C)(C)C)cc34)C2=O)cc1` was tested, and the GI50 [49] was 92.7 µM (inactive), the GI50 [2] was > 100 µM (inactive) and the GI50 [32] was > 100 µM (inactive). The GI50 [50] was > 100 µM (inactive), the GI50 [51] was > 100 µM and the GI50 [3] was > 100 µM (inactive). For the same compound, the GI50 [33] was > 100 µM (inactive), the GI50 [52] was > 100 µM (inactive) and the GI50 [4] was 53.2 µM (inactive). For the same compound, the GI50 [5] was > 100 µM (inactive), the GI50 [6] was > 100 µM (inactive) and the GI50 [7] was > 100 µM (inactive). For the same compound, the GI50 [8] was > 100 µM (inactive), the GI50 [9] was > 100 µM (inactive) and the GI50 [34] was > 100 µM (inactive). For the same compound, the GI50 [35] was > 100 µM (inactive), the GI50 [11] was > 100 µM (inactive) and the GI50 [36] was > 100 µM (inactive). For the same compound, the GI50 [53] was > 100 µM (inactive), the GI50 [12] was > 100 µM (inactive) and the GI50 [37] was > 100 µM (inactive). The GI50 [13] was > 100 µM (inactive), the GI50 [14] was > 100 µM (inactive) and the GI50 [15] was > 100 µM (inactive). For the same compound, the GI50 [16] was > 100 µM (inactive), the GI50 [38] was > 100 µM (inactive) and the GI50 [54] was > 100 µM (inactive). For the same compound, the GI50 [55] was > 100 µM (inactive), the GI50 [39] was > 100 µM (inactive) and the GI50 [40] was > 100 µM (inactive). For the same compound, the GI50 [41] was > 100 µM (inactive), the GI50 [42] was > 100 µM (inactive) and the GI50 [18] was > 100 µM (inactive). The GI50 [19] was > 100 µM (inactive), the GI50 [43] was > 100 µM (inactive) and the GI50 [20] was > 100 µM (inactive). The GI50 [21] was > 100 µM (inactive), the GI50 [22] was > 100 µM (inactive) and the GI50 [23] was > 100 µM (inactive). The GI50 [24] was > 100 µM (inactive), the GI50 [25] was > 100 µM (inactive) and the GI50 [44] was > 100 µM (inactive). For the same compound, the GI50 [26] was > 100 µM (inactive), the GI50 [45] was > 100 µM (inactive) and the GI50 [27] was > 100 µM (inactive). For the same compound, the GI50 [29] was > 100 µM (inactive), the GI50 [47] was > 100 µM (inactive) and the GI50 [30] was > 100 µM (inactive). For the same compound, the GI50 [31] was > 100 µM (inactive) and the GI50 [56] was > 100 µM (inactive).
With `CC(C)C(Sc1nc(-c2ccccc2)c(-c2ccccc2)[nH]1)C(=O)NNC(=S)Nc1ccccc1` (configuration not stated) the GI50 [49] was 21.5 µM (inactive), the GI50 [2] was 17.1 µM (inactive) and the GI50 [32] was 18.2 µM (inactive). The GI50 [50] was 14.7 µM (inactive), the GI50 [51] was 17.9 µM and the GI50 [3] was 23.8 µM (inactive). The GI50 [33] was 25.8 µM (inactive), the GI50 [52] was 41.9 µM (inactive) and the GI50 [4] was 20.4 µM (inactive). For the same compound, the GI50 [5] was 16.7 µM (inactive), the GI50 [6] was 17.7 µM (inactive) and the GI50 [57] was 18.4 µM (inactive). The GI50 [8] was 22.5 µM (inactive), the GI50 [9] was 18.4 µM (inactive) and the GI50 [58] was 15.9 µM (inactive). For the same compound, the GI50 [10] was 15.3 µM (inactive), the GI50 [34] was 17.8 µM (inactive) and the GI50 [35] was 17.5 µM (inactive). For the same compound, the GI50 [11] was 17.7 µM (inactive), the GI50 [36] was 19.5 µM (inactive) and the GI50 [53] was 15 µM (inactive). For the same compound, the GI50 [12] was 22.7 µM (inactive), the GI50 [37] was 24.1 µM (inactive) and the GI50 [13] was 18.4 µM (inactive). For the same compound, the GI50 [14] was 18.9 µM (inactive), the GI50 [15] was 21.5 µM (inactive) and the GI50 [16] was 25 µM (inactive). For the same compound, the GI50 [38] was 15.2 µM (inactive), the GI50 [54] was 12.8 µM (inactive) and the GI50 [17] was 26 µM (inactive). The GI50 [39] was 21.4 µM (inactive), the GI50 [40] was 16.9 µM (inactive) and the GI50 [41] was 11.6 µM (inactive). For the same compound, the GI50 [18] was 8.67 µM (inactive), the GI50 [19] was 16 µM (inactive) and the GI50 [43] was 16.7 µM (inactive). The GI50 [20] was 25.1 µM (inactive), the GI50 [21] was 0.0421 µM (active) and the GI50 [22] was 10.9 µM (inactive). For the same compound, the GI50 [23] was 29.3 µM (inactive), the GI50 [24] was 19.2 µM (inactive) and the GI50 [25] was 15.5 µM (inactive). The GI50 [44] was 18.5 µM (inactive), the GI50 [26] was 16.7 µM (inactive) and the GI50 [45] was 14.8 µM (inactive). For the same compound, the GI50 [27] was 12.1 µM (inactive), the GI50 [29] was 22.9 µM (inactive) and the GI50 [46] was 5.61 µM (inactive). For the same compound, the GI50 [47] was 24.5 µM (inactive), the GI50 [30] was 16.9 µM (inactive) and the GI50 [48] was 0.857 µM (active). For the same compound, the GI50 [31] was 13.1 µM (inactive) and the GI50 [56] was 25.5 µM (inactive).
